Reference: patent US20230067929A1, “HETEROCYCLIC DERIVATIVES, PHARMACEUTICAL COMPOSITIONS AND THEIR USE IN THE TREATMENT, AMELIORATION OR PREVENTION OF CANCER” (Tolremo Therapeutics AG, priority 2018, published 2023)

Tested on: A375 cells
Assay: A375 cell immunofluorescence assay (with 1 μM S1152 and 0.5 μM S1008), EC50
Type: cell-based
Conditions: 1 μM S1152 + 0.5 μM S1008, one day, ratio FL2/FL3 staining (sc-365823 antibody)
Procedure: One thousand four hundred A375 cells were seeded in each well of a 384 well microplate. One day later they were treated with 1 μM S1152 (Selleckchem) in dimethyl sulfoxide, 0.5 μM S1008 (Selleckchem) and dose ranges of invention compounds for one day in Dulbecco's Modified Eagle's Medium supplemented with 10% fetal calf serum and 2 mM (2S)-2-amino-4-carbamoylbutanoic acid. Wells were incubated with 4% polyoxymethylene (Sigma Aldrich 158127) at ambient temperature. After ten minutes, polyoxymethylene was replaced with phosphate-buffered saline. After one minute phosphate-buffered saline was replaced with 0.2% polyethylene glycol octylphenyl ether in phosphate-buffered saline. After ten minutes at ambient temperature 0.2% polyethylene glycol octylphenyl ether in phosphate-buffered saline was replaced with 1% aminoethanoic acid in phosphate-buffered saline. […] After one hour at 37° C., the solution was replaced with phosphate-buffered saline twice. Phosphate-buffered saline was replaced with 2 μg/ml A-11029 (Invitrogen) in 0.05% polyoxyethylene (20) sorbitan monolaurate in phosphate-buffered saline. […] After one hour at ambient temperature in the dark, signal in wells was measured with a Acumen Cellista. 3,8-Diamino-5-[3-(diethylmethylammonio)propyl]-6-phenylphenanthridinium diiodide-positive objects were defined in FL3 (565-600 nm) with a perimeter between 50-800 μm and a total intensity of 10000-1000000 FLU. Signal in FL2 (500-530 nm) was measured in defined objects. A normalized ratio of total ln FL2 over total ln FL3 staining was log transformed. A non-linear regression (variable slope, 4 parameters) was used to calculate EC50 values using GraphPad Prism (Version 7.0d).

SMILES	EC50 [µM]
CCC(=O)N1CCCC(c2nc(NCCN(C)C)cc(Nc3cccc(F)c3)n2)C1 (stereo not drawn)	> 10
CC(C)CN1CCCC(c2nc(Nc3cccc(F)c3)cc(-c3cccnc3)n2)C1 (stereo not drawn)	> 10
CCC(=O)N1CCCC(c2nc(Oc3cccc(F)c3)cc(-c3cccnc3)n2)C1 (stereo not drawn)	> 10
CC(=O)N1CC(c2cc(Nc3cccc(F)c3)cc(-c3cccnc3)n2)CCC1C (stereo not drawn) [drawing 690]	1 to 10
CC(=O)N1CCCC(c2nc(Nc3ccc4c(c3)CCC4)cc(-c3cccnc3)n2)C1 (stereo not drawn)	> 10
CN1CC(c2nc(Nc3cccc(F)c3)cc(-c3cccnc3)n2)CC1=O (stereo not drawn)	> 10
Fc1cccc(Nc2cc(-c3cccnc3)nc(C3CCCNC3)n2)c1 (stereo not drawn)	> 10
CC(=O)N1CCCC(c2nc(Nc3cc(F)cc(F)c3)cc(-c3cncnc3)n2)C1 (stereo not drawn)	1 to 10
O=C1CCC2C(c3nc(Nc4cccc(F)c4)cc(-c4cccnc4)n3)CCCN12 (stereo not drawn)	1 to 10
CN1CC(c2nc(Nc3cccc(F)c3)cc(-c3cccnc3)n2)CCC1=O (stereo not drawn)	> 10
CC(=O)N1CCCC(c2nc(Nc3ccccn3)cc(-c3cncnc3)n2)C1 (stereo not drawn)	> 10
CCC(=O)N1CCCC(c2nc(Nc3ccc(C)cc3)cc(-c3cccnc3)n2)C1 (stereo not drawn)	1 to 10
CC(=O)N1CCCC(c2nc(NC3CCCCC3)cc(-c3cccnc3)n2)C1 (stereo not drawn)	> 10
CC(=O)NCCOCCOCCNC(=O)c1ccc(-c2cc(Nc3cccc(F)c3)nc(C3CCCN(C(C)=O)C3)n2)cc1 (stereo not drawn)	> 10
CC(=O)N1CCCC(c2nc(Nc3cncc(C)c3)cc(-c3cncnc3)n2)C1 (stereo not drawn)	1 to 10
CC(=O)N1CCCC(c2nc(Nc3cncc(C)n3)cc(-c3cncnc3)n2)C1 (stereo not drawn)	> 10
CCC(=O)N1CCCC(c2nc(Nc3cccc(C(F)(F)F)c3)cc(-c3cccnc3)n2)C1 (stereo not drawn)	> 10
CC(=O)N1CCCC(c2nc(Nc3cccnc3)cc(-c3cncnc3)n2)C1 (stereo not drawn)	> 10
CCC(=O)N1CCCC(c2nc(Nc3cccc(F)c3)cc(C3CCOCC3)n2)C1 (stereo not drawn)	> 10
CCC(=O)N1CCCC(c2nc(Nc3ccccc3F)cc(-c3cccnc3)n2)C1 (stereo not drawn)	1 to 10
CCC(=O)N1CCCC(c2nc(Nc3cccc(F)c3)cc(C3=CCOCC3)n2)C1 (stereo not drawn)	> 10
COc1ccc(Nc2cc(-c3cncc(OC)c3)nc(C3CCCN(C(C)=O)C3)n2)cc1 (stereo not drawn)	1 to 10

SMILES	EC50 [µM]
COc1csc(-c2cc(Nc3cccc(F)c3)cc(C3CCCN(C(C)=O)C3)n2)c1 (stereo not drawn)	1 to 10
CC(=O)N1C[C@H](c2nc(Nc3cccc(F)c3)cc(-c3cncc(O)c3)n2)CC[C@@H]1C	< 1
CCC(=O)N1CCCC(c2nc(Nc3cccc(C)c3)cc(-c3cccnc3)n2)C1 (stereo not drawn)	1 to 10
CC(=O)N1CC(c2nc(Nc3cccc(F)c3)cc(-c3cccnc3)n2)CC(C)C1C (stereo not drawn)	< 1
CCC(=O)N1CCCC(c2nc(-c3cccnc3)cc(N3CCOCC3)n2)C1 (stereo not drawn)	> 10
CC(=O)N1CCCC(c2nc(Nc3nc(C)co3)cc(-c3cccnc3)n2)C1 (stereo not drawn)	> 10
CC(=O)NCCOCCOCCOCC(=O)Nc1ccc(-c2cc(Nc3cccc(F)c3)nc(C3CCCN(C(C)=O)C3)n2)cc1 (stereo not drawn)	1 to 10
Fc1cccc(Nc2cc(-c3cccnc3)nc(C3CCCN(CC(F)(F)F)C3)n2)c1 (stereo not drawn)	> 10
CC(=O)N1CCCC(c2nc(Nc3cc(F)cc(F)c3)cc(-c3c(C)noc3C)n2)C1 (stereo not drawn)	1 to 10
CCC(=O)N1CCCC(c2nc(Nc3cccc(F)c3)cc(NC3CCCCC3)n2)C1 (stereo not drawn)	> 10
COc1cncc(-c2cc(N(C)c3cccc(C)c3)nc(C3CCCN(C(C)=O)C3)n2)c1 (stereo not drawn)	1 to 10
CC(=O)N1CCCC(c2nc(Nc3ccccn3)cc(-c3cccnc3)n2)C1 (stereo not drawn)	> 10
CC(=O)N1C[C@H](c2nc(Nc3cncc(C)c3)cc(Nc3ncccn3)n2)CC[C@@H]1C	< 1
CC(=O)N1CC(c2nc(Nc3cccc(F)c3)cc(-c3cccnc3)n2)CCC1c1ccccc1 (stereo not drawn)	> 10
CCC(=O)N1CCCC(c2nc(Nc3cccc(F)c3)cc(-c3cnn(CC(F)(F)F)c3)n2)C1 (stereo not drawn)	1 to 10
CC(=O)N1CCCC(c2nc(Nc3cccc(F)c3)cc(N3CCOCC3)n2)C1 (stereo not drawn)	> 10
O=C1CCCC2CCC(c3nc(Nc4cccc(F)c4)cc(-c4cccnc4)n3)CN12 (stereo not drawn)	> 10
CCC(=O)N1CCCC(c2nc(NCc3ccccc3)cc(-c3cccnc3)n2)C1 (stereo not drawn)	> 10
CCC(=O)N1CCCC(c2nc(Nc3cccc(OC)c3)cc(-c3cccnc3)n2)C1 (stereo not drawn)	1 to 10
CCC(=O)N1CCCC(c2nc(Nc3cccc(F)c3)cc(NC3CCOC3)n2)C1 (stereo not drawn)	> 10
CC(=O)N1CCCC(c2nc(Nc3cccc(F)c3)nc(-c3ccccc3)n2)C1 (stereo not drawn)	1 to 10

Second part, the compound after the results:

EC50 [µM]	SMILES
1 to 10	CC(=O)N1CCCC(c2nc(Nc3cccc(F)c3)cc(-c3ccoc3)n2)C1 (stereo not drawn)
< 1	CC(=O)N1CCCC(c2nc(Nc3cccc(F)c3)cc(-c3cncc(-c4nccs4)c3)n2)C1 (stereo not drawn)
< 1	CC(=O)N1CCCC(c2nc(Nc3cccc(F)c3)cc(-c3cncc4[nH]ccc34)n2)C1 (stereo not drawn) [drawing 556]
1 to 10	COc1cccc(Nc2cc(-c3cncc(OC)c3)nc(C3CCCN(C(C)=O)C3)n2)c1 (stereo not drawn)
> 10	CC(=O)N1CCCC(c2nc(Nc3cccc(F)c3)c(C)c(-c3cccnc3)n2)C1 (stereo not drawn)
1 to 10	CCC(=O)N1CCC[C@@H](c2nc(Nc3cccc(F)c3)cc(-c3cccnc3)n2)C1
1 to 10	CCC(=O)N1CCCC(c2nc(Nc3cccc(F)c3)cc(-c3ccc(NC(C)=O)cc3)n2)C1 (stereo not drawn)
1 to 10	COc1cncc(-c2cc(Nc3ccc(C)c(F)c3)nc(C3CCCN(C(C)=O)C3)n2)c1 (stereo not drawn)
< 1	CC(=O)N1CCCC(c2nc(Nc3cccc(C)c3)cc(-c3cncc(C)c3)n2)C1 (stereo not drawn)
< 1	COc1cncc(-c2cc(Nc3cccc(Cl)c3)nc(C3CCCN(C(C)=O)C3)n2)c1 (stereo not drawn)
> 10	CCC(=O)N1CCC(c2nc(Nc3cccc(F)c3)cc(-c3cccnc3)n2)C1 (stereo not drawn)
1 to 10	CC(=O)N1CCCC(c2nc(Nc3cccc(F)c3)cc(-c3sc(C(C)C)nc3C)n2)C1 (stereo not drawn)
> 10	CCC(=O)N1CCCC(c2nc(Nc3cccc(F)c3)cc(-c3ccncc3)n2)C1 (stereo not drawn)
> 10	O=C(N1CCCC(c2nc(Nc3cccc(F)c3)cc(-c3cccnc3)n2)C1)C(F)(F)F (stereo not drawn)
> 10	CC(=O)N1CCCC(c2cc(Nc3cccc(F)c3)nc(-c3cccnc3)c2)C1 (stereo not drawn)
< 1	CC(=O)N1CC(C)CC(c2nc(Nc3cccc(F)c3)cc(-c3cccnc3)n2)C1 (stereo not drawn)
1 to 10	CC(=O)N1CCN(c2cncc(-c3cc(Nc4cccc(F)c4)nc(C4CCCN(C(C)=O)C4)n3)c2)CC1 (stereo not drawn)
> 10	C#Cc1cc(Nc2cccc(F)c2)nc(C2CCCN(C(C)=O)C2)n1 (stereo not drawn)
< 1	CC(=O)N1CCCC(c2nc(Nc3cccc(C)c3)cc(-c3cncc4[nH]ccc34)n2)C1 (stereo not drawn)
1 to 10	CC(=O)N1CCOCC(c2nc(Nc3cccc(F)c3)cc(-c3cccnc3)n2)C1 (stereo not drawn)
1 to 10	CC(=O)N1CCCC(c2nc(Nc3cccc(F)c3)cc(-c3cncc4[nH]ccc34)n2)C1 (stereo not drawn) [drawing 575]
1 to 10	CC(=O)N1CCCC(c2nc(Nc3cccc(F)c3)cc(-c3ccnnc3)n2)C1 (stereo not drawn)

EC50 [µM]	SMILES
1 to 10	CC(=O)N1CCCC(c2nc(Nc3cccc(C)c3)cc(-c3ccnnc3)n2)C1 (stereo not drawn)
> 10	CCC(=O)N1CCCC(c2nc(Nc3cccc(F)c3)cc(-c3ccccn3)n2)C1 (stereo not drawn)
< 1	CC(=O)N1CCCC(c2nc(Nc3cccc(F)c3)cc(Nc3ncccn3)n2)C1 (stereo not drawn)
< 1	CC(=O)N1CCCC(c2nc(Nc3ccccc3)cc(-c3cncc4[nH]ccc34)n2)C1 (stereo not drawn)
1 to 10	CCC(=O)N1CCCC(c2nc(Nc3cccc(F)c3)cc(-c3ccc(C(F)(F)F)nc3)n2)C1 (stereo not drawn)
1 to 10	COc1cncc(-c2cc(Nc3cccc(C(F)F)c3)nc(C3CCCN(C(C)=O)C3)n2)c1 (stereo not drawn)
> 10	CC(F)(F)C(=O)N1CCCC(c2nc(Nc3cccc(F)c3)cc(-c3cccnc3)n2)C1 (stereo not drawn)
1 to 10	CC(=O)N1CCCC(c2nc(Nc3cccc(F)c3)cc(-c3ccc(C)nc3C)n2)C1 (stereo not drawn)
> 10	CCC(=O)N1CCCC(c2nc(Nc3cccc(F)c3)cc(-c3cnn(C)c3)n2)C1 (stereo not drawn)
> 10	CCC(=O)N1CCCC(c2nc(Nc3cccc(F)c3)cc(-c3ccccc3NC(C)=O)n2)C1 (stereo not drawn)
> 10	CCC(=O)N1CCCC(c2nc(Nc3cccc(F)c3)cc(-c3ncccn3)n2)C1 (stereo not drawn)
1 to 10	CCC(=O)N1CCCC(c2nc(Nc3cccc(F)c3)cc(-c3ccc4scnc4c3)n2)C1 (stereo not drawn)
> 10	CC(=O)N1CCCC(c2nc(Nc3cccc(F)c3)cc(-c3cncc(N4CCNCC4)c3)n2)C1 (stereo not drawn)
1 to 10	CCc1cccc(Nc2cc(-c3cncc(OC)c3)nc(C3CCCN(C(C)=O)C3)n2)c1 (stereo not drawn)
< 1	CC(=O)N1C[C@H](c2nc(Nc3ccccc3)cc(-c3cncc4[nH]ccc34)n2)CC[C@@H]1C
1 to 10	CC(=O)N1CCCC(c2nc(Nc3cccnc3)cc(-c3cccnc3)n2)C1 (stereo not drawn)
1 to 10	CC(=O)N1CCCC(c2nc(Nc3cccc(F)c3)cc(-c3cncc(C(=O)N4CCOCC4)c3)n2)C1 (stereo not drawn)
1 to 10	CC(=O)N1CCCC(c2nc(Nc3cccc(F)c3)cc(-c3cnc4[nH]ccc4c3)n2)C1 (stereo not drawn)
1 to 10	CC(=O)Nc1ccc(-c2cc(Nc3cccc(F)c3)nc(C3CCCN(C(C)=O)C3)n2)cn1 (stereo not drawn)
> 10	CCC(=O)N1CCCC(c2nc(Nc3cccc(F)c3)cc(-c3cccc(OC(F)F)c3)n2)C1 (stereo not drawn)
1 to 10	CCC(=O)N1CCCC(c2nc(Nc3cccc(F)c3)cc(-c3csc4cnccc34)n2)C1 (stereo not drawn)
< 1	CC(=O)N1CCCC(c2nc(Nc3cccc(C)c3)cc(-c3cncc(-c4nccs4)c3)n2)C1 (stereo not drawn)
